Assay results reported in patent publication US7384558B2, “Compositions capable of inhibiting reactive oxygen and carbonyl species” (Baxter International Inc., priority 2004, dated 2008).
Where “and” joins values, the source holds several entries; their conditions need not be identical. Equal entries are not always repeated.

Experiment: TEAC (Trolox equivalent antioxidant activity) ABTS decolorization assay
Settings: for antioxidant activity as compared to the Vitamin E standard compound (Trolox): Table 1, statement in words; for TEAC (Ratio % Inhibition): ratio of % inhibition of antioxidant compound / % inhibition of Trolox; for TEAC (Slope): relative to Trolox as standard, slope of % inhibition vs concentration
Procedure: Tests were conducted to evaluate the antioxidant and carbonyl trapping properties of therapeutic compositions according to various embodiments of the present invention. A Trolox equivalent antioxidant activity (TEAC) test was conducted to assess the antioxidant properties as described below in greater detail.
The TEAC antioxidant activity was measured by the ABTS [2,2′-Azinobis-(3-ethylbenzothiazoline-6-sulphonic acid)] decolorization assay. In this method, a stable radical (ABTS radical cation) is formed, and the adsorption maxima is determined. See, for example, R. Ree, N. Pellegrini, A. Proteggente, A. Pannala, M. Yang and C. Rice-Evans, Antioxidant activity applying an improved ABTS radical cation decolorization assay, Free Rad. Biol. & Med., 26 (9/10), 1231-1237 (1999). The addition of antioxidant to the pre-formed radical cation reduces it to an extent and on a time-scale depending on the antioxidant activity, the concentration of the antioxidant and the duration of the reaction. Thus, the extent of reduction (decolorization) as percentage inhibition of the ABTS radical cation is determined as a function of concentration and time and calculated relative to the reactivity of Trolox as a standard under the same conditions. The TEAC value is calculated by the ratio of % of Inhibition of antioxidant compound/% Inhibition of Trolox.

Q: With `Cc1c(C)c2c(c(C)c1O)CCC(C)(CCN1CCN(C(=O)[C@@H](N)CS)CC1)O2` (some centres unmarked) [VE-CYS-1, N-[2-(6-Hydroxy-tetramethylchroman-2-yl)ethyl]-N′-(cysteinyl)-piperazine] as the compound, how does the “antioxidant activity as compared to the Vitamin E standard compound (Trolox)” value read?
A: enhanced antioxidant activity

Q: And the “TEAC (Ratio % Inhibition)” value?
A: 1.4-1.5

Q: And the “TEAC (Slope)” value?
A: 1.4(r2 = 0.9997)

Q: What does the source list for “N-[2-(6-Hydroxy-tetramethylchroman-2-yl)ethyl]-N′-(penicillamyl)-piperazine [VE-PEN-1]”?
A: antioxidant activity as compared to the Vitamin E standard compound (Trolox): enhanced antioxidant activity; TEAC (Ratio % Inhibition): 1.6-2.1; TEAC (Slope): 1.3(r2 = 0.9996)

Q: Which “TEAC (Ratio % Inhibition)” value does the source give for `Cc1c(C)c2c(c(C)c1O)CCC(C)(CCON)O2` (centres unmarked) [VE-ONH2-1, 2-(6-Hydroxy-2,5,7,8-tetramethylchroman-2-yl)-1-(aminooxy)ethane] here?
A: 0.9-1.0 and 0.5-0.8

Q: And the “TEAC (Slope)” value?
A: 0.9(r2 = 0.9948) and 0.8(r2 = 0.9997)
